Measured values taken from patent US12661410B2, “Compounds for targeted degradation of RET” (C4 Therapeutics, Inc., priority 2020, dated 2026).
Changes are numbered by the printed parent chain. Like-named read-outs stand apart in the source and are kept apart here.

Legend:
RET (658-1114) = molecular target: T1, RET (658-1114) (Homo sapiens, UniProt P07949); test: HiBiT-Degradation, RET wild-type degradation assay (Nano-Glo HiBiT Lytic), 293T.144 cells; format: cell-based; settings: for Emax / DC50: 6.0 hours
T1 construct: 658-1114; expressed in transfected cells; host or cells: 293T.144 (293T cells, generated in-house)
T1 sequence (P07949 658-1114): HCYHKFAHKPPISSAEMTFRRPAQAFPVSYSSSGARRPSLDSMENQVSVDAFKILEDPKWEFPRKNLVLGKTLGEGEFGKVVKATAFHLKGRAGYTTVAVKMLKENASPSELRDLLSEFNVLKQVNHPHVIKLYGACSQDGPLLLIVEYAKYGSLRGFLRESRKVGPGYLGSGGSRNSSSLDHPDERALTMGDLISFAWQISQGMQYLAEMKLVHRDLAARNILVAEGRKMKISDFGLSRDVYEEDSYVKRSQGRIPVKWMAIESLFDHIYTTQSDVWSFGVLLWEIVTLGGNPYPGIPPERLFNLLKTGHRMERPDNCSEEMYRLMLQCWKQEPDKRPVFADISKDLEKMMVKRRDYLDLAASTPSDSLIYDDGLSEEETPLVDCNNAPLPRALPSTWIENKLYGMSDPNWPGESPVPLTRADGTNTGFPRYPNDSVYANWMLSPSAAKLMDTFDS
Summary of the method: (§1)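 Cells were plated and dosed with an 11-point half-log series (highest 10 μM) in duplicate. After 6 hours they were lysed with HiBiT lytic detection reagent and luminescence measured. DC50 and percent remaining protein (Emax) came from the dose-response curves.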

RET(KD: 658-1114 G810R) = molecular target: T2, RET(KD: 658-1114 G810R) (Homo sapiens, UniProt P07949, G810R); test: HiBiT-Degradation, RET G810R degradation assay (Nano-Glo HiBiT Lytic), 293T.165 cells; format: cell-based; settings: for Emax / DC50: 6.0 hours
T2 construct: 658-1114; expressed in transfected cells; host or cells: 293T.165 (293T cells, generated in-house)
T2 sequence (P07949 658-1114 G810R): T1 sequence (P07949 658-1114) with G153R
Summary of the method: as §1

[1] = % remaining protein, read-out: 293T.144 RET (658-1114) 6.0 hours (Emax)
[2] = half-maximal degradation concentration, read-out: 293T.144 RET (658-1114) 6.0 hours (DC50)
[3] = % remaining protein, read-out: 293T.165 RET(KD: 658-1114 G810R) 6.0 hours (Emax)
[4] = half-maximal degradation concentration, read-out: 293T.165 RET(KD: 658-1114 G810R) 6.0 hours (DC50)
[5] = RET wild-type, read-out: HiBiT-Degradation 293T.144 RET (658-1114) 6.0 hours (DC50)
[6] = RET wild-type, read-out: HiBiT-Degradation 293T.144 RET (658-1114) 6.0 hours (Emax)
[7] = RET G810R, read-out: HiBiT-Degradation 293T.165 RET(KD: 658-1114 G810R) 6.0 hours (DC50)
[8] = RET G810R, read-out: HiBiT-Degradation 293T.165 RET(KD: 658-1114 G810R) 6.0 hours (Emax)
[9] = HiBiT-Degradation, read-out: 293T.144 RET (658-1114) 6.0 hours (DC50)
[10] = HiBiT-Degradation, read-out: 293T.144 RET (658-1114) 6.0 hours (Emax)
[11] = HiBiT-Degradation, read-out: 293T.165 RET(KD: 658-1114 G810R) 6.0 hours (DC50)

SMILES | 293T.144 RET (658-1114) 6.0 hours (IP) [nM] (RET (658-1114)) | Emax (RET (658-1114); [1]) [%] | DC50 (RET (658-1114); [2]) [nM] | 293T.165 RET(KD: 658-1114 G810R) 6.0 hours (IP) [nM] (RET(KD: 658-1114 G810R)) | Emax (RET(KD: 658-1114 G810R); [3]) [%] | DC50 (RET(KD: 658-1114 G810R); [4]) [nM] | HiBiT-Degradation 293T.144 RET (658-1114) 6.0 hours (IP) [nM] (RET (658-1114); RET wild-type) | DC50 (RET (658-1114); [5]) [nM] | Emax (RET (658-1114); [6]) [%] | HiBiT-Degradation 293T.165 RET(KD: 658-1114 G810R) 6.0 hours (IP) [nM] (RET(KD: 658-1114 G810R); RET G810R) | DC50 (RET(KD: 658-1114 G810R); [7]) [nM] | Emax (RET(KD: 658-1114 G810R); [8]) [%] | 293T.144 RET (658-1114) 6.0 hours (IP) [nM] (RET (658-1114); HiBiT-Degradation) | DC50 (RET (658-1114); [9]) [nM] | Emax (RET (658-1114); [10]) [%] | 293T.165 RET(KD: 658-1114 G810R) 6.0 hours (Emax) (RET(KD: 658-1114 G810R); HiBiT-Degradation) | 293T.165 RET(KD: 658-1114 G810R) 6.0 hours (IP) [nM] (RET(KD: 658-1114 G810R); HiBiT-Degradation) | DC50 (RET(KD: 658-1114 G810R); [11]) [nM]
N#Cc1cnn2cc(-c3cnn(C4CCN(C(=O)CC5(O)CCN(c6ccc(NC7CCC(=O)NC7=O)cc6F)CC5)CC4)c3)nc(-c3ccc(N4CC5CC(C4)N5Cc4ccccc4)nc3)c12 (stereo not shown) [Compound 176, 4-(6-(6-benzyl-3,6-diazabicyclo[3.1.1]heptan-3-yl)pyridin-3-yl)-6-(1-(1-(2-(1-(4-((2,6-dioxopiperidin-3-yl)amino)-2-fluorophenyl)-4-hydroxypiperidin-4-yl)acetyl)piperidin-4-yl)-1H-pyrazol-4-yl)pyrazolo[1,5-a]pyrazine-3-carbonitrile] | ++++ (<50 nM = ++++) | < 30 | < 50 | ++++ (<50 nM = ++++) | < 30 | < 50 |  |  |  |  |  |  |  |  |  |  |  | 
CCC1(C(=O)NC(C)C)CCN(c2ccc(-c3nc(-c4cnn(C5CCN(C(=O)CC6(O)CCN(c7ccc(N[C@H]8CCC(=O)NC8=O)cc7F)CC6)CC5)c4)cn4ncc(C#N)c34)cn2)CC1 (single isomer, unassigned) [Compound 80] |  |  |  |  | < 50 | < 50 | ++++ (< 50 nM = ++++) | < 50 | < 30 | ++++ (< 50 nM = ++++) | < 50 | < 50 |  |  |  |  |  | 
N#Cc1cnn2cc(-c3cnn(C4CCN(C(=O)CC5(O)CCN(c6ccc(NC7CCC(=O)NC7=O)cc6F)CC5)CC4)c3)cc(-c3ccc(N4CCC(c5cccc(O)c5)CC4)nc3)c12 (stereo not shown) [Compound 198, 6-[1-[1-[2-[1-[4-[(2,6-dioxo-3-piperidyl)amino]-2-fluoro-phenyl]-4-hydroxy-4-piperidyl]acetyl]-4-piperidyl]pyrazol-4-yl]-4-[6-[4-(3-hydroxyphenyl)-1-piperidyl]-3-pyridyl]pyrazolo[1,5-a]pyridine-3-carbonitrile] | ++++ (<50 nM = ++++) | < 30 | < 50 | ++++ (<50 nM = ++++) | < 30 | < 50 |  |  |  |  |  |  |  |  |  |  |  | 
CN(Cc1ccc(-c2cn3ncc(C#N)c3c(-c3ccc(N4CCN(Cc5ccccn5)CC4)nc3)n2)cc1)C(=O)CN1CCC(c2ccc(NC3CCC(=O)NC3=O)cc2)CC1 (stereo not shown) [Compound 83, N-[[4-[3-cyano-4-[6-[4-(2-pyridylmethyl)piperazin-1-yl]-3-pyridyl]pyrazolo[1,5-a]pyrazin-6-yl]phenyl]methyl]-2-[4-[4-[(2,6-dioxo-3-piperidyl)amino]phenyl]-1-piperidyl]-N-methyl-acetamide] |  |  |  |  | < 50 | < 100 | ++++ (< 50 nM = ++++) | < 50 | < 30 | ++++ (< 50 nM = ++++) | < 100 | < 50 |  |  |  |  |  | 
CC(C)NC(=O)C1(C)CCN(c2ccc(-c3cc(-c4cnn([C@H]5CC[C@H](CCN6CCC(c7ccc8c(N9CCC(=O)NC9=O)nn(C)c8c7)CC6)CC5)c4)cn4ncc(C#N)c34)cn2)CC1 [Compound 86, 1-[5-[3-cyano-6-[1-[(1r,4r)-4-[2-[4-[3-(2,4-dioxohexahydropyrimidin-1-yl)-1-methyl-indazol-6-1]-1-piperidyl]ethyl]cyclohexyl]pyrazol-4-yl]pyrazolo[1,5-a]pyridin-4-yl]-2-pyridyl]-N-isopropyl-4-methyl-piperidine-4-carboxamide] |  |  |  |  | < 30 | < 100 | ++++ (< 50 nM = ++++) | < 50 | < 30 | ++++ (< 50 nM = ++++) | < 100 | < 30 |  |  |  |  |  | 
N#Cc1cnn2cc(-c3cnn(C4CCN(C(=O)CC5(O)CCN(c6ccc(NC7CCC(=O)NC7=O)cc6F)CC5)CC4)c3)nc(-c3ccc(N4CCCN(Cc5ccccc5)CC4)nc3)c12 (stereo not shown) [Compound 108, 4-[6-(4-benzyl-1,4-diazepan-1-yl)-3-pyridyl]-6-[1-[1-[2-[1-[4-[(2,6-dioxo-3-piperidyl)amino]-2-fluoro-phenyl]-4-hydroxy-4-piperidyl]acetyl]-4-piperidyl]pyrazol-4-yl]pyrazolo[1,5-a]pyrazine-3-carbonitrile] | ++++ (<50 nM = ++++) | < 30 | < 50 | ++++ (<50 nM = ++++) | < 30 | < 50 |  |  |  |  |  |  |  |  |  |  |  | 
N#Cc1cnn2cc(-c3ccc(N4CCN(C(=O)CN5CCC(c6ccc(NC7CCC(=O)NC7=O)cc6)CC5)CC4)cc3)cc(-c3ccc(N4CCN(CCc5ccccn5)CC4)nc3)c12 (stereo not shown) [Compound 18, 6-(4-(4-(2-(4-(4-((2,6-Dioxopiperidin-3-yl)amino)phenyl)piperidin-1-yl)acetyl)piperazin-1-yl)phenyl)-4-(6-(4-(2-(pyridin-2-yl)ethyl)piperazin-1-yl)pyridin-3-yl)pyrazolo[1,5-a]pyridine-3-carbonitrile] |  |  |  |  | < 30 | < 100 |  |  |  |  |  |  | ++++ (< 50 nM = ++++) | < 50 | < 30 | ++++ (< 30% = ++++) | ++++ (< 50 nM = ++++) | < 100
N#Cc1cnn2cc(-c3ccc(N4CCN(C(=O)CN5CCC(c6ccc(NC7CCC(=O)NC7=O)cc6)CC5)CC4)cc3)cc(-c3ccc(N4CC5CC5C4)nc3)c12 (stereo not shown) [Compound 17, 4-[6-(3-azabicyclo[3.1.0]hexan-3-yl)-3-pyridyl]-6-[4-[4-[2-[4-[4-[(2,6-dioxo-3-piperidyl)amino]phenyl]-1-piperidyl]acetyl]piperazin-1-yl]phenyl]pyrazolo[1,5-a]pyridine-3-carbonitrile] |  |  |  |  | < 30 | < 50 |  |  |  |  |  |  | ++++ (< 50 nM = ++++) | < 50 | < 30 | ++++ (< 30% = ++++) | ++++ (< 50 nM = ++++) | < 50
COc1ccc(CN2C3COCC2CN(c2ccc(-c4nc(-c5cnn(C6CCC(N7CCC(c8ccc(NC9CCC(=O)NC9=O)cc8Cl)CC7)CC6)c5)cn5ncc(C#N)c45)cn2)C3)cn1 (stereo not shown) [Compound 206, 6-[1-[4-[4-[2-chloro-4-[(2,6-dioxo-3-piperidyl)amino]phenyl]-1-piperidyl]cyclohexyl]pyrazol-4-yl]-4-[6-[9-[(6-methoxy-3-pyridyl)methyl]-3-oxa-7,9-diazabicyclo[3.3.1]nonan-7-yl]-3-pyridyl]pyrazolo[1,5-a]pyrazine-3-carbonitrile] | ++++ (<50 nM = ++++) | < 30 | < 50 | ++++ (<50 nM = ++++) | < 30 | < 100 |  |  |  |  |  |  |  |  |  |  |  | 
